The values that follow come from US20110287045A1, “Enhanced immune response against infections” (priority 2010, published 2011).

“Also recorded” adds a separate entry of the source.

In one assay the test system is platelets. As to the kind of experiment: Inhibitor pre-treatment before agonist-induced platelet activation (flow cytometry). Type of assay: cell-based. The conditions noted are these: for inhibition of CCL5-induced platelet activation / inhibition of Tat-induced platelet activation: pre-treatment 37° C. 30 minutes, SB328437 3 nM, EGTA 100 μM, PGE1 5 μM; for inhibition of CCL5-induced platelet activation: CCL5 10 μg/ml; for inhibition of Tat-induced platelet activation: Tat 20 ng/ml. The method, then:
(§1) Gel-filtered human or mouse platelets were prepared from platelet-rich plasma obtained from blood collected in 0.38% sodium citrate via heart puncture. 1×10^7gel-filtered platelets were incubated under different stimulation conditions at 37° C. for 30 minutes. For in vitro platelet activation, Tat 20 ng/ml, CCL5 10 μg/ml, or control Ad18-66 20 ng/ml were used. To test the role of chemokine receptor CCR3, calcium flux and cAMP in Tat-induced platelet activation, CCR3 inhibitor SB328437 3 nM, calcium flux inhibitor EGTA 100 μM and prostaglandin E1 (PGE1, a cAMP elevator) 5 μM were used separately to treat platelets at 37° C. for 30 minutes before incubation with Tat, CCL5 or control as above. To test the role of β3 integrin, platelets from β3 integrin knock out mice were incubated with Tat, CCL5, thrombin, and control. Treated platelets were then stained with anti-CD154-FITC and anti-CD62P-PE antibody on ice for one hour. Fluorescent-labeled platelets were measured by flow cytometry (FACScan, Becton-Dickinson, Calif.).

The target in another assay is integrin αVβ3 (Homo sapiens, UniProt P05106+P06756). The conditions noted are these: read-out: dissociation constants (Kd), integrin αVβ3; cited from earlier work.
integrin αVβ3, sequence (P06756 31-889 limits assumed): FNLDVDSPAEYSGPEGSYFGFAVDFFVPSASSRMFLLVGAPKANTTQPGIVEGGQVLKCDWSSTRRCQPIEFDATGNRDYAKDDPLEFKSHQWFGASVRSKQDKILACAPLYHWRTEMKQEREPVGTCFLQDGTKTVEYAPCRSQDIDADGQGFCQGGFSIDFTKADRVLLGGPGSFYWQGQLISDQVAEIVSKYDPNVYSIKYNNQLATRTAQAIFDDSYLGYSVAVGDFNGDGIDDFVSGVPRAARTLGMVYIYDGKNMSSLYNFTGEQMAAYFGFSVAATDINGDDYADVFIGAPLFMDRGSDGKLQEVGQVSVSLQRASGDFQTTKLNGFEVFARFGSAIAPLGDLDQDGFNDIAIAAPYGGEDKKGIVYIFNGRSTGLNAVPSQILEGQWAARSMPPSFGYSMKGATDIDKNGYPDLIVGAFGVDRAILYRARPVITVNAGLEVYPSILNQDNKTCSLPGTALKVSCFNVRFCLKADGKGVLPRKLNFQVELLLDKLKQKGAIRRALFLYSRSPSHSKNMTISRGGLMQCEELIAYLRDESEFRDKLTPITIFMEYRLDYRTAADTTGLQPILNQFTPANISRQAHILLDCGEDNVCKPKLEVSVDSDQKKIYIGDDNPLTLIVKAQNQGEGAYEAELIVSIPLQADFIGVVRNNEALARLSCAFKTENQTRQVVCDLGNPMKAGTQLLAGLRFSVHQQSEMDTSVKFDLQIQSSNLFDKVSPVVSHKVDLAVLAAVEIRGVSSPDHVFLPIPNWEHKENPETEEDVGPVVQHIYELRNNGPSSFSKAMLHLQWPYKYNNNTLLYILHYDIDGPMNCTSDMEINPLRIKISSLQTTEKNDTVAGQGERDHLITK
integrin αVβ3, sequence (P06756 891-1048 partner limits assumed): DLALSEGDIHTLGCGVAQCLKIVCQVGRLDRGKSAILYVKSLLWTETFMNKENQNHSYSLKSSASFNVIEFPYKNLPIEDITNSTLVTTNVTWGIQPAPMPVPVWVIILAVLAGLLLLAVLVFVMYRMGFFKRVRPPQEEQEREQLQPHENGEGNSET
integrin αVβ3, sequence (P05106 27-788): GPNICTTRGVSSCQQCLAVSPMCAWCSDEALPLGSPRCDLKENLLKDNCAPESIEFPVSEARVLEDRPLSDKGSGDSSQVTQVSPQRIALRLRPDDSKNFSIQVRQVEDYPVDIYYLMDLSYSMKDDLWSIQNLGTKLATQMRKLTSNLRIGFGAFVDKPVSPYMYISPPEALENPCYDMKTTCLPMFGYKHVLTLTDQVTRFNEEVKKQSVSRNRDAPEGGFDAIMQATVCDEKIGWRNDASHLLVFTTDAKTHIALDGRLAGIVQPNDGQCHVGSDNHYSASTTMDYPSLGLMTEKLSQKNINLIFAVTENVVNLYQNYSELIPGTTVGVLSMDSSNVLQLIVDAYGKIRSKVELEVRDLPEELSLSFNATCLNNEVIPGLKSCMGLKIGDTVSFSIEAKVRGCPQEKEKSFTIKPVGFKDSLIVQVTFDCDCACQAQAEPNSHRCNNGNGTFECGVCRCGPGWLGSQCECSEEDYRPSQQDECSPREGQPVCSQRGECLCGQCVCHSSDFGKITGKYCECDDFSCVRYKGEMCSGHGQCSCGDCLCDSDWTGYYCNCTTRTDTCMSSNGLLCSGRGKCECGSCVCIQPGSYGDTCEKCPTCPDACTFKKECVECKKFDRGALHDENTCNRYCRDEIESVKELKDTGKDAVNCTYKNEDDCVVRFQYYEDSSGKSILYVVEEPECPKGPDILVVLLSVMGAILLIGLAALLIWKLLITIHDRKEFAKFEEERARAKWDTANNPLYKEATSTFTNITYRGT
In assay [1] the test system is platelets from integrin β3 knockout mice. As to the kind of experiment: Flow cytometry assay of platelet activation, platelets from integrin β3 knockout mice. Type of assay: cell-based, mouse. The conditions noted are these: β3−/− gel-filtered platelets. The method, then: as §1
For orientation: A flow cytometer gives signals particle by particle.

As for `O=C(O)CN(CCOCCOCCN(CC(=O)O)CC(=O)O)CC(=O)O` [EGTA], in the assay on platelets, the “inhibition of CCL5-induced platelet activation” value is on record as “completely inhibited; also recorded: completely blocks” and the “inhibition of Tat-induced platelet activation” value is reported as “completely inhibited”.
In the case of `CCCCC[C@H](O)/C=C/[C@H]1[C@H](O)CC(=O)[C@@H]1CCCCCCC(=O)O` [PGE1, prostaglandin E1], in the assay with platelets, the “inhibition of CCL5-induced platelet activation” value was “partially inhibited” and the “inhibition of Tat-induced platelet activation” value is listed as “No significant inhibition”. The “inhibition of CCL5-induced platelet activation” value in the assay on platelets (listed as prostaglandin E1 (PGE1)) was “partially blocks”.
For the compound `COC(=O)[C@H](Cc1ccc([N+](=O)[O-])cc1)NC(=O)c1cccc2ccccc12` [SB328437], the “inhibition of thrombin-induced platelet activation” value in the assay with platelets (SB328437 pre-treatment, FIG. 9 in β3−/− platelets) was “did not inhibit; also recorded: do not inhibit”. In the assay with platelets, the “inhibition of CCL5-induced platelet activation” value is on record as “completely inhibited” and the “inhibition of Tat-induced platelet activation” value is recorded as “completely inhibited”.
As usually defined, the Kd is the constant that tells how readily two partners part at equilibrium. Regarding fibrinogen, the Kd at integrin αVβ3 was 27 nM.
In the case of thrombin, the “platelet activation in integrin β3 deficient mouse platelets” value in assay [1] is reported as “still induces platelet activation”.
Take “vitronectin: integrin αVβ3 ligand, literature comparator”: in the assay with integrin αVβ3, the Kd is 64 nM.
